# Measurements taken from paper PMC8139947, “Novel late-stage radiosynthesis of 5-[18F]-trifluoromethyl-1,2,4-oxadiazole (TFMO) containing molecules for PET imaging” (Scientific Reports, 2021).
# Legend:
# [1] = Partition coefficient (LogD), octanol/PBS shake flask method; format: physicochemical; conditions: octanol / phosphate buffer pH 7.4, shake flask, radioactivity counted by gamma-counter; read-out: LogD (observed)
# Source text: We determined the partition coefficients (LogD) using the octanol/PBS shake flask method.
# [2] = Aqueous solubility / formulation for in vivo studies; format: physicochemical; conditions: high concentration of DMSO (~ 50%) needed to solubilise the tracer
smiles,measurement,setting,value
"CC(C)(CNC(=O)c1cccc(-c2noc(C(F)(F)[18F])n2)c1)c1coc(-c2ccccc2)n1 [[^18F]TMP195, N-(2-methyl-2-(2-phenyloxazol-4-yl)propyl)-3-(5-([18F]trifluoromethyl)-1,2,4-oxadiazol-3-yl)benzamide]",logD,[1],> 6
same,aqueous solubility,[2],poor
